Assay results as given in ChEMBL document CHEMBL1129835, “Selective cytotoxicity of certain 9-substituted ellipticines for leukemia cells in a variety of leukemia cell cultures” (1997).

Assays:
Type in all cases: functional
Settings in all cases: Homo sapiens
LOX IMVI = assay: The compound was evaluated for cytotoxicity against LOX-IMVI melanoma cell line
CAKI-1 = assay: The compound was evaluated for cytotoxicity against CAKI-1 renal cancer cell line
MDA-N = assay: The compound was evaluated for cytotoxicity against MDA-N breast cancer cell line
HCT-116 = assay: The compound was evaluated for cytotoxicity against HCT116 colon cancer cell line
PC-3 = assay: The compound was evaluated for cytotoxicity against PC-3 prostate cancer cell line
U-251 = assay: The compound was evaluated for cytotoxicity against U251 CNS cancer cell line
MOLT-4 = assay: The compound was evaluated for cytotoxicity against MOLT-4 leukemia cell line
IGROV-1 = assay: The compound was evaluated for cytotoxicity against IGROV1 ovarian cancer cell line
NCI-H322M = assay: The compound was evaluated for cytotoxicity against NCI-H322M non-small cell lung cancer cell line

SMILES: Cc1c2ccncc2c(C)c2c1[nH]c1ccc(CN(CCO)CCO)cc12
- GI50 (LOX IMVI): 150 nM
- GI50 (CAKI-1): 250 nM
- GI50 (MDA-N): 370 nM
- GI50 (HCT-116): 100 nM
- GI50 (PC-3): 340 nM
- GI50 (U-251): 260 nM
- GI50 (MOLT-4): 20 nM
- GI50 (IGROV-1): 120 nM
- GI50 (NCI-H322M): 220 nM
